Results taken from patent publication US20230106519A1, “GOLD(III)-BIGUANIDE PRODRUGS, METHODS OF PREPARATION AND USES THEREOF” (National University of Singapore, priority 2020, published 2023).
“Also recorded” adds a separate entry of the source. Where two headings read alike, the source gives them in different places. Each block holds one compound with its values, some of them ahead of it.

What was measured:
rat liver TrxR = biological target: T1, rat liver TrxR (Rattus norvegicus, UniProt O89049); assay: Thioredoxin reductase inhibition, DTNB reduction assay
T1 sequence (O89049 1-499): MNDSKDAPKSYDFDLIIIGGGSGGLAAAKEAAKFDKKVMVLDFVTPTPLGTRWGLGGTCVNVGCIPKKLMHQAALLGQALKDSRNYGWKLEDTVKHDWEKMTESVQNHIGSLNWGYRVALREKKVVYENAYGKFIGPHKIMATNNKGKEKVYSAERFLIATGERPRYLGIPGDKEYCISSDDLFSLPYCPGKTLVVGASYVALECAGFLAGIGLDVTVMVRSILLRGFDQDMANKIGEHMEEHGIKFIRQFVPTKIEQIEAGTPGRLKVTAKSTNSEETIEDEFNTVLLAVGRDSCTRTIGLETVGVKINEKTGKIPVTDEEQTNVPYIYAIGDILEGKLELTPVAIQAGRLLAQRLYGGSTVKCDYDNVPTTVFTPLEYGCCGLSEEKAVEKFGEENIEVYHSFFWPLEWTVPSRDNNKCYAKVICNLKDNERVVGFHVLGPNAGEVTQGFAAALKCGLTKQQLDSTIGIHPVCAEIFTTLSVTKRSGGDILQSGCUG
Procedure: Thioredoxin reductase inhibition assay. Assay was performed according to the protocol provided by the manufacturer. […] Compounds of interest were serially diluted at the separate 96-well plate and 4 μl of each concentration was added to the appropriate wells. The reaction mixture was incubated with gentle shaking (room temperature, 30 minutes). Subsequently, 6 μl of DNTB (100 mM) was added and incubated for an additional 3 minutes.
Compounds of interest at six different concentrations were incubated with the isolated rat liver TrxR enzyme in the presence of NADPH for 30 minutes, followed by 2 minutes incubation with the DNTB reagent.

[1] = system: TAMH (transforming growth factor-a transgenic mouse hepatocytes); assay: MTT toxicity assay in hepatocytes TAMH; details: read-out: EC50 TAMH, exposure time 72 hours
Procedure: (§1) Cell lines and culture conditions. Human ovarian carcinoma cells A2780 and A2780cisR, and human breast adenocarcinoma MDA-MB-231 cells, murine hepatocytes TAMH and human cardiomyocytes AC10 were obtained from ATCC.
Inhibition of cell viability assay. The cytotoxicity of the compounds was determined by colorimetric MTT assay. The cells were harvested from culture flasks by trypsinization and seeded into Cellstar 96-well microculture plates at the seeding density of 6000 cells per well (6×10^4 cells/mL). TAMH and AC10 cells were seeded at 12000 and 5000 cells per well, respectively. After cells were allowed to resume exponential growth for 24 hours, they were exposed to drugs at different concentrations in media for 72 hours. The drugs were diluted in complete medium at the desired concentration and added to each well (100 μL) and serially diluted to other wells. After exposure for 72 hours, the media was replaced with MTT in media (5 mg/mL, 100 μL) and incubated for additional 45 minutes. Subsequently, the medium was aspirated and the purple formazan crystals formed in viable cells were dissolved in DMSO (100 μL). Optical densities were measured at 570 nm using the BioTek H1 Synergy microplate reader. […] Evaluation was based on means from at least three independent experiments, each comprising six replicates per concentration level. […]

MDA-MB-231 cells [2] = assay: Annexin V/PI apoptosis assay; details: MDA-MB-231, 24 hours, equipotent concentrations
Procedure: Annexin V/PI apoptosis assay. MDA-MB-231 cells were seeded into Cellstar 12-well plates (Greiner Bio-One) at a density of 20×10^4 cells/well (1 mL per well). […] After the supernatant solution was collected in 1.5 mL microtubes, the cells were washed with 100 μl of trypsin, which was combined with the supernatant. Subsequently, cells were trypsinized with 200 μl trypsin for 5 minutes at 37° C., 5% CO2, washed with 200 μl of PBS and combined with the supernatant. The cells were centrifuged at 2.5×10^3 rpm for 5 minutes and the pellets were washed once with PBS and resuspended in 500 μl of Annexin V binding buffer and stained with Annexin V-FITC and PI reagents. The fluorescence was immediately analyzed by flow cytometry. The resulting dot blots were acquired from 10000 events and quantified using Flowjo software (Flowjo LLC, Ashland, Oreg., USA).
MDA-MB-231 cells were treated with the compounds of interest at equipotent concentrations, corresponding to their IC50 values (FIG. 57).

[3] = system: A2780 (ovarian carcinoma); assay: MTT cytotoxicity assay, A2780; details: read-out: EC50 A2780
Procedure: (§2) Human ovarian carcinoma cells A2780 and A2780cisR, and human breast adenocarcinoma MDA-MB-231 cells, murine hepatocytes TAMH and human cardiomyocytes AC10 were obtained from ATCC. […] The stock of cisplatin was commercially available clinical grade solution in saline buffer.
(§3) Inhibition of cell viability assay. The cytotoxicity of the compounds was determined by colorimetric MTT assay. The cells were harvested from culture flasks by trypsinization and seeded into Cellstar 96-well microculture plates at the seeding density of 6000 cells per well (6×10^4 cells/mL). TAMH and AC10 cells were seeded at 12000 and 5000 cells per well, respectively. After cells were allowed to resume exponential growth for 24 hours, they were exposed to drugs at different concentrations in media for 72 hours. The drugs were diluted in complete medium at the desired concentration and added to each well (100 μL) and serially diluted to other wells. After exposure for 72 hours, the media was replaced with MTT in media (5 mg/mL, 100 μL) and incubated for additional 45 minutes. Subsequently, the medium was aspirated and the purple formazan crystals formed in viable cells were dissolved in DMSO (100 μL). Optical densities were measured at 570 nm using the BioTek H1 Synergy microplate reader. […] Evaluation was based on means from at least three independent experiments, each comprising six replicates per concentration level.

[4] = system: AC10 (human ventricular cardiomyocytes); assay: MTT toxicity assay in cardiomyocytes AC10
Procedure: as §1
Inhibition of cell viability assay. The cytotoxicity of the compounds was determined by colorimetric MTT assay. The cells were harvested from culture flasks by trypsinization and seeded into Cellstar 96-well microculture plates at the seeding density of 6000 cells per well (6×10^4 cells/mL). TAMH and AC10 cells were seeded at 12000 and 5000 cells per well, respectively. After cells were allowed to resume exponential growth for 24 hours, they were exposed to drugs at different concentrations in media for 72 hours. The drugs were diluted in complete medium at the desired concentration and added to each well (100 μL) and serially diluted to other wells. After exposure for 72 hours, the media was replaced with MTT in media (5 mg/mL, 100 μL) and incubated for additional 45 minutes. Subsequently, the medium was aspirated and the purple formazan crystals formed in viable cells were dissolved in DMSO (100 μL). Optical densities were measured at 570 nm using the BioTek H1 Synergy microplate reader. […] Evaluation was based on means from at least three independent experiments, each comprising six replicates per concentration level. For experiments with inhibitors, MDA-MB-231 cells were seeded at the seeding density of 8000 cells per well (8×10^4 cells/mL).

[5] = system: A2780cisR (ovarian carcinoma); assay: MTT cytotoxicity assay, A2780cisR; details: for RF (Resistance Factor): IC50 (A2780cisR)/IC50 (A2780); for EC50: read-out: EC50 A2780cisR
Procedure: as §2, §3

[6] = system: MDA-MB-231 (breast adenocarcinoma); assay: MTT cytotoxicity assay, MDA-MB-231; details: for EC50: read-out: EC50 MDA-MB-231
Procedure: as §2, §3

MDA-MB-231 cells [7] = assay: Cellular accumulation of Au by ICP-MS; details: ICP-MS after 24 hour exposure at 1.4 μM
Procedure: Cellular accumulation of Au complexes was determined in MDA-MB-231 cells. Cells were seeded into Cellstar 6-well plates (Greiner Bio-one) at a density of 60×10^4 cells/well (2 mL per well). After the cells were allowed to resume exponential growth for 24 hours, they were exposed to compounds of interest at various concentrations for 24 hours at 37° C. The cells were washed twice with 1 mL of PBS and lysed with RIPA lysis buffer for 5-10 min at 4° C. The cell lysates were scraped from the wells and transferred to separate 1.5 mL microtubes. The supernatant was then collected after centrifugation (13000 rpm, 4° C. for 15 minutes) and total protein content of each sample was quantified via Bradford's assay. […] The resulting solution was diluted to 1 mL (2-4% v/v HNO3) with ultrapure Milli-Q water. Au content of each sample was quantified by ICP-MS. Re was used as an internal standard. […] Metal standards for calibration curve (0, 0.5, 1, 2, 5, 10, 20, 40 ppb) were freshly prepared before each measurement. All readings were made in triplicates in He mode.

[8] = Stability in ammonium carbonate buffer by high resolution ESI-MS; details: ammonium carbonate buffer pH 7.4, 37° C., 1, 3 and 24 hours
Procedure: NMR and mass spectrometric (MS) methods were employed to characterize the stability of Au complexes in DMSO and aqueous media. ^1H NMR stability studies were performed over the period of 6-10 days in d^6-DMSO and D2O (1met*).

[9] = Reactivity towards glutathione, ligand release (HR-MS, UV-vis); assay type: physicochemical; details: with GSH; HR-MS and UV-vis
Text: NMR- and MS-based stability studies.
Intriguingly, the reactivity of Au^III-metformin complexes towards GSH was drastically different despite their similar structures.

MDA-MB-231 tumors = details: 250 mg/kg; cited from earlier work
[10] = system: MDA-MB-231 (breast adenocarcinoma)
Procedure: as §2, §3

[11] = system: AMPK-mTOR energy signaling pathway; details: MDA-MB-231, 0.5×-2×EC50, 2, 6, 24 hours
Procedure: Western blotting. MDA-MB-231 cells were seeded into Cellstar 6-well plates (Greiner Bio-One) at a density of 60×10^4 cells/well (2 mL per well). After the cells were allowed to resume exponential growth for 24 hours, they were exposed to compounds of interest at various concentrations for 2, 6 and 24 hours. The cells were washed twice with PBS and lysed with RIPA buffer (50-100 μL) and kept for 5-10 minutes at 4° C. The samples were sonicated in ice bath (3 times for 30 seconds). […] Equal quantities of protein (50 μg) were reconstituted in loading buffer (5× Laemmli Buffer with 5% DTT) and heated at 100° C. for 10 minutes. […] The protein bands were visualised with Ponceau S stain solution and the nitrocellulose membranes were cut into strips based on the protein ladder. The membranes were washed with a TBS-T wash buffer (0.1% Tween-20 in 1×PBS) 3 times for 5 minutes. Subsequently, they were blocked in 5% BSA (w/v) in wash buffer for 1 hour and incubated with the appropriate primary antibodies in 5% BSA (w/v) in wash buffer at 4° C. overnight. The membranes were washed with a wash buffer 3 times for 7 minutes. […] Immune complexes were detected with Luminata HRP substrates and analysed using enhanced chemiluminescence imaging. […]

[12] = MTT assay, exposure time 72 hours

Procedure for Cyclic voltammetry: Cyclic voltammetry and spectroelectrochemistry. Cyclic voltammetry experiments with approximately 0.5 mM solutions of investigated gold complexes in 0.1 M nBu4NPF6 supporting electrolyte in dimethylsulphoxide (DMSO) or in pH 7 buffered solutions were performed under argon atmosphere using a three-electrode arrangement with glassy carbon 1 mm disc working electrode (from lonode, Australia), platinum wire as counter electrode, and silver wire as pseudo-reference electrode. Ferrocene (Fc) served as the internal potential standard for DMSO and potassium hexacyanoferrate(II) for aqueous solutions. […] The cell was positioned in the CUV-UV Cuvette Holder (Ocean Optics) connected to the diode-array UV-vis-NIR spectrometer by optical fibres. UV-vis-NIR spectra were processed using the AvaSoft 7.7 software package. Halogen and deuterium lamps were used as light sources (Avantes, Model AvaLight-DH-S-BAL).

Compound: CN(C)C1=[NH+][Au-]2([NH]C(N)=N1)[c]1ccccc1-c1cccc[n+]12 (centres unmarked) [1met*]
IC50 (rat liver TrxR): 0.0012 ± 0.0005 µM

Compound: N.N.[Cl][Pt][Cl] [Cisplatin]
EC50 [1]: 52 ± 7 µM | apoptotic cell population (MDA-MB-231 cells [2]): markedly lower | EC50 [3, 12]: 0.6 ± 0.05 µM | EC50 ([4]; read-out: EC50 AC10, MTT assay, exposure time 72 hours): 10 ± 2 µM | RF (Resistance Factor) [5]: 18 | EC50 [5, 12]: 11 ± 2 µM | EC50 [6, 12]: 27 ± 8 µM

Compound: [Cl][Au-]1([Cl])[c]2ccccc2-c2cccc[n+]21 [Compound 1, (2-phenylpyridine)AuCl2]
Cellular accumulation MDA-MB-231 (MDA-MB-231 cells [7]): 0.36 ± 0.10 nmol Au/mg protein | apoptotic cell population (MDA-MB-231 cells [2]): significantly higher | EC50 [3, 12]: 2 ± 0.4 µM | RF (Resistance Factor) [5]: 2 | EC50 [5, 12]: 4 ± 0.8 µM | EC50 [6, 12]: 7.8 ± 1.7 µM

Compound: NC1=NC(NCCc2ccccc2)=[NH+][Au-]2([NH]1)[c]1ccccc1-c1cccc[n+]12 (centres unmarked) [Compound 1phen]
stability, detection of molecular ion [M]+ [8]: not detected after 1 hour incubation | apoptotic cell population (MDA-MB-231 cells [2]): no changes in apoptotic population | reactivity towards GSH / ligand release in words [9]: release of phenformin was detected; also recorded: Only the peak at m/z 206.1622, which corresponds to free phenformin, was observed | IC50 (rat liver TrxR): 0.0031 ± 0.0015 µM | cytotoxicity in words ([6]; tested cancer cell lines, MTT 72 h): least cytotoxic representative of this series

Cellular accumulation MDA-MB-231 (MDA-MB-231 cells [7]): 0.14 ± 0.03 nmol Au/mg protein
Compound: [Cl][Au-]1([Cl])[c]2ccccc2Cc2cccc[n+]21 [Compound 2, (2-benzylpyridine)Au^IIICl2]
EC50 [3, 12]: 6.5 ± 0.8 µM | RF (Resistance Factor) [5]: 1 | EC50 [5, 12]: 7.2 ± 1.5 µM | EC50 [6, 12]: 7.1 ± 0.4 µM

Compound: CN(C)C1=[NH+][Au-]2([NH]C(N)=N1)[c]1ccccc1Cc1cccc[n+]12 (centres unmarked) [Compound 2met]
stability, detection of molecular ion [M]+ [8]: stable for 24 hours | reactivity towards GSH / ligand release in words [9]: stable both in the absence and presence of GSH; also recorded: did not significantly change over time | IC50 (rat liver TrxR): 0.00055 ± 9e-05 µM

Cellular accumulation MDA-MB-231 (MDA-MB-231 cells [7]): 0.14 ± 0.05 nmol Au/mg protein
Compound: O=C1c2cccc[c]2[Au-]([Cl])([Cl])[n+]2ccccc21 [Compound 3, (2-benzoylpyridine)Au^IIICl2]
EC50 [3, 12]: 8.6 ± 1.7 µM | RF (Resistance Factor) [5]: 1 | EC50 [5, 12]: 9.1 ± 2.9 µM | EC50 [6, 12]: 19 ± 3 µM

redox activity in words (Cyclic voltammetry): did not show any redox activity
Compound: CN(C)C(=N)N=C(N)N [Metformin]
anticancer effects in an MDA-MB-231 mammary fat model (MDA-MB-231 tumors): negligible | cytotoxicity in words [10]: devoid of cytotoxicity | apoptotic cell population (MDA-MB-231 cells [2]): markedly lower | EC50 ([3]; Homo sapiens, A2780, 72 h): > 1000 µM | EC50 ([5]; Homo sapiens, A2780cisR, 72 h): > 1000 µM | EC50 ([6]; Homo sapiens, MDA-MB-231, 72 h): > 1000 µM

Compound: [H]/N=C(/N)N/C(=N/[H])NCCc1ccccc1 [Phenformin]
EC50 ([3]; Homo sapiens, A2780, 72 h): 104 ± 21 µM | EC50 ([5]; Homo sapiens, A2780cisR, 72 h): 246 ± 24 µM | EC50 ([6]; Homo sapiens, MDA-MB-231, 72 h): 608 ± 23 µM

Compound: COc1cccc2c1C(=O)c1c(O)c3c(c(O)c1C2=O)C[C@@](O)(C(=O)CO)C[C@@H]3O[C@H]1C[C@H](N)[C@H](O)[C@H](C)O1 [doxorubicin]
IC50 ([4]; read-out: IC50 value in AC10 cells (heart toxicity)): 2.3 ± 0.2 µM

Compound: [Au^III(2-phenylpyridine)(metformin)]PF6 [Compound 1met]
AMPK and mTOR phosphorylation [11]: dose-dependent increase of AMPK phosphorylation and decrease of mTOR phosphorylation
